In PMC8592027, “Structure-Guided Design of D-Galactal Derivatives with High Affinity and Selectivity for the Galectin-8 N-Terminal Domain” (ACS Medicinal Chemistry Letters, 2021):

How the values were obtained:
[1] = system: IL-8 secretion from MDA-MB-231 cells; experiment: Multiplexed cytokine assay, IL-8 secretion; type: cell-based, human; conditions: 24 hours, vs untreated cells
Protocol: Figure 5 Effect of compounds 1 and 6a on the secretion of IL-6 and IL-8 expressed in pg/mL. The effects were measured after incubating the cells with the compounds at 10 and 100 μM. Compounds 1 and 6a reduce the secretion of IL-6 and IL-8 in a dose-dependent manner at 100 and 10 μM. Results shown are means ± SEM of three independent experiments. ns, not significant (p > 0.05); *p < 0.05 versus untreated controls.
Metabolic activity assay: […]
(§1) Briefly, the cells were treated with the selected compounds in 0.1% dimethyl sulfoxide (DMSO; vehicle), 0.1% DMSO (control vehicle), or medium (control) and seeded at a cell density of 5,500 cells/well (MDA-MB-231 cells) or 4 x 10^4 cells/well (K562 cells), 7000 cells/well (HepG2 cells) or 1 x 10^5 cells/well (human PBMCs) in duplicates (MDA-MB-231, K562, and […]) or triplicates for HepG2 cells (100 µL), in sterile 96-well plates. For the MDA-MB-231 and HepG2, the cells were left to adhere overnight before adding the compounds. The plates were then incubated for 24 hours (48 hours for HepG2), after which 15 µL of MTS reagent was added to each well. […]
HTX Multi-Mode; BioTek Instruments, Inc., VT, USA).
Multiplexed cytokine assay:
MDA-MB-231 cells were seeded in 96-well flat-bottom plates at a density of 2 x 10^4 cells/well in 100 µL of medium and allowed to adhere for 24 hours at 37 °C and 5% CO2. The medium was then replaced by a fresh medium containing the desired concentrations of compounds 1 and 6a, after which the cells were cells incubated again for 24 hours at 37 °C and 5% CO2. Cell-free supernatants were collected and stored at – 80 °C before the analysis. The cytokines secretion was assessed by BD Cytometric Bead Array Human inflammatory cytokine Kit (content: IL-1, IL-6, IL-8, IL-10, IL-12p). The flow cytometric analyses were performed on an Attune NxT flow cytometer (Thermo Fisher Scientific, Waltham, MA, USA). Standard curves were generated using recombinant cytokines provided in the kit, and the data were analyzed with FlowJo software (Tree Star, Inc., Ashland, OR). The results are expressed in pg/mL. Data are represented as means ± standard deviation (SD) from three representative independent experiments.
(§2) All experiments were performed at least twice, with average values expressed as means ± SD. All data were analyzed with the statistical software GraphPad Prism 8.0 (GraphPad Software, Inc., CA, USA). by one-way ANOVA followed with Dunnett’s multiple compar ison test. Differences were considered non-significant for p > 0.05, and significant (*) for p < 0.05.

K562 cancer cell line = experiment: MTS metabolic activity (cytotoxicity) assay, K562; type: cell-based; conditions: concentrations 1 to 100 μM, 24 hours
Protocol: We have investigated the cytotoxicity of the compounds 1, 6a, and 6c via a (3-(4,5-dimethylthiazol-2-yl)-5-(3-carboxymethoxyphenyl)-2-(4-sulfophenyl)-2H-tetrazolium) (MTS) assay in K562 and MDA-MB-231 cancer cell lines to establish the direct antitumor activity of compounds, as well as human peripheral blood mononuclear cells (PBMCs), to evaluate their safety.
Metabolic activity assay:
as §1, with “The metabolic activities of the cell lines were determined using the CellTiter 96 Aqueous One Solution cell proliferation assay (MTS Reagents, Promega, Madison, WI, USA), according to the manufacturer instructions. Briefly,” for “Briefly,”, “well. After 30-90 minute of incubation, the absorbance was measured at 492 nm using a microplate reader (Synergy HTX Multi-Mode; BioTek Instruments, Inc., VT, USA).” for “well.”
Bead Array Human inflammatory cytokine Kit (content: IL-1, IL-6, IL-8, IL-10, IL-12p). The flow cytometric analyses were performed on an Attune NxT flow cytometer (Thermo Fisher Scientific, […]
Data are represented as means ± standard deviation (SD) from three representative independent experiments.
as §2, with “0.05. […]” for “0.05.”

galectin-2 = biological target: T1, galectin-2 (Homo sapiens, UniProt P05162); experiment: Competitive fluorescence polarization assay, galectin-2; type: binding; conditions: mean ± SEM of n = 4–8
T1 sequence (P05162 1-132): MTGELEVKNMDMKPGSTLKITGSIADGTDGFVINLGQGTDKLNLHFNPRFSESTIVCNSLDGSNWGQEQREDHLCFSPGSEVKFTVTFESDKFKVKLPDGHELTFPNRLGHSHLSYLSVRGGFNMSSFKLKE

[2] = biological target: T2, galectin-4C (C-terminal domain) (Homo sapiens, UniProt P56470); experiment: Competitive fluorescence polarization assay, galectin-4C; type: binding; conditions: mean ± SEM of n = 4–8
T2 construct: galectins (N = N-terminal domain, C = C-terminal domain); made in house
T2 sequence (P56470 194-323 limits assumed): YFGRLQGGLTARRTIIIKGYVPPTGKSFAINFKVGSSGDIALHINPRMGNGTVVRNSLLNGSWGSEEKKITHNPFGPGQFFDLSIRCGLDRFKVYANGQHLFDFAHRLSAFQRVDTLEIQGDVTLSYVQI
Protocol: (§3) 1. Competitive fluorescence polarization experiments:
(§4) Human galectins -1, -3, -4N, -4C, -7, -8N, -9N, and -9C were expressed and purified as previously described 30,41. Fluorescence polarisation experiments were performed using the PHERAstar FS plat e reader (software version 2.10 R3), and the fluorescence anisotropy of fluorescein tagged probes was measured by excitation at 485 nm and emission at 520 nm. The specific conditions for galectins -1, -3, -4N, -4C, -7, -8N, -9N, and -9C were kept as report ed30,41,42. The synthesised compounds were dissolved in pure DMSO at 20 mM concentration and diluted in PBS to 3-6 different concentrations, and each concentration was tested in duplicate. The highest inhibitor concentrations tested were 1.5 mM. The

[3] = biological target: T3, galectin-9C (C-terminal domain) (Homo sapiens, UniProt O00182); experiment: Competitive fluorescence polarization assay, galectin-9C; type: binding; conditions: mean ± SEM of n = 4–8
T3 construct: galectins (N = N-terminal domain, C = C-terminal domain); made in house
T3 sequence (O00182 227-355 limits assumed): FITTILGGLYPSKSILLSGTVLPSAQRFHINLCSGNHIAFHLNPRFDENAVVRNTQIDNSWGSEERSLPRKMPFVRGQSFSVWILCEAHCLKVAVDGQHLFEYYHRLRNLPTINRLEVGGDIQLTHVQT
Protocol: as §3, §4

How did the “reduction in IL-8 secretion” value ([1]; 10 μM, effect not significant) turn out when `Cn1c(CO[C@@H]2C=CO[C@H](CO)[C@@H]2O)nc2ccc(C(=O)O)cc21` [6a] was run?
Its value is about 20%.

And the “reduction of IL-8 secretion” value ([1]; 100 μM)?
Its value is “about 55%”.

What about the “cell viability (MTS), K562” value (K562 cancer cell line) of the same compound?
Its value is “None of the compounds decreased the viability”.

What about the Kd (galectin-2) of the same compound?
Its Kd is 1400 ± 24 µM.

What about the Kd [2] of the same compound?
Its Kd is 1700 ± 150 µM.

What about the Kd [3] of the same compound?
The Kd was over 1500 µM.
